In brackets after ≈: the same amount, converted by molar mass.
Tests used:
Assay in all cases: In vitro MIC, 2010 surveillance isolates
K. pneumoniae ESBL+ = format: cell-based, Klebsiella pneumoniae
K. oxytoca = format: cell-based
Acinetobacter spp = format: cell-based
E. cloacae CeftazS = format: cell-based; set-up: MIC90: unit: µg/mL
E. coli ESBL+ = format: cell-based, Escherichia coli
E. coli ESBL− = format: cell-based, Escherichia coli
A. baumanii = format: cell-based
Enterobacter spp = format: cell-based
K. pneumoniae ESBL− = format: cell-based, Klebsiella pneumoniae
E. cloacae CeftazR = format: cell-based

C[C@@H](O)[C@H]1C(=O)N2C(C(=O)O)=C(SCCN=CN)C[C@H]12 [Imipenem]
% R (resistance) (K. pneumoniae ESBL+; Asia/Pac, Eucast breakpoints): 10.5%
MIC90 (K. pneumoniae ESBL+; Asia/Pac, N=124): > 8 µg/mL
% R (resistance) (K. pneumoniae ESBL+; Europe, Eucast breakpoints): 7.9%
MIC90 (K. pneumoniae ESBL+; Europe, N=151): 2 µg/mL (≈ 6.68 µM)
% R (resistance) (K. pneumoniae ESBL+; L. Amer, CLSI breakpoints): 18.7%
MIC90 (K. pneumoniae ESBL+; L. Amer, N=209): > 8 µg/mL
% R (resistance) (K. pneumoniae ESBL+; N America, CLSI breakpoints): 26.9%
MIC90 (K. pneumoniae ESBL+; N America, N=108): > 8 µg/mL
% R (resistance) (K. oxytoca; Asia/Pac, Eucast breakpoints): 0%
MIC90 (K. oxytoca; Asia/Pac, N=17): 0.5 µg/mL (≈ 1.67 µM)
% R (resistance) (K. oxytoca; Europe, Eucast breakpoints): 0%
MIC90 (K. oxytoca; Europe, N=158): 0.25 µg/mL (≈ 0.835 µM)
% R (resistance) (K. oxytoca; L. Amer, CLSI breakpoints): 4%
MIC90 (K. oxytoca; L. Amer, N=25): 0.25 µg/mL (≈ 0.835 µM)
% R (resistance) (K. oxytoca; N America, CLSI breakpoints): 0.6%
MIC90 (K. oxytoca; N America, N=177): 0.25 µg/mL (≈ 0.835 µM)
% R (resistance) (Acinetobacter spp; Asia/Pac, Eucast breakpoints): 11.1%
% R (resistance) (Acinetobacter spp; Europe, Eucast breakpoints): 30.2%
MIC90 (Acinetobacter spp; Europe, N=43): > 8 µg/mL
% R (resistance) (Acinetobacter spp; L. Amer, CLSI breakpoints): 44.4%
% R (resistance) (Acinetobacter spp; N America, CLSI breakpoints): 4.8%
MIC90 (Acinetobacter spp; N America, N=42): 8 µg/mL (≈ 26.7 µM)
MIC90 (E. cloacae CeftazS; Asia/Pac, N=100): 1 (1)
% R (resistance) (E. cloacae CeftazS; Europe, Eucast breakpoints): 0%
MIC90 (E. cloacae CeftazS; Europe, N=183): 0.5 µg/mL (≈ 1.67 µM)
% R (resistance) (E. cloacae CeftazS; L. Amer, CLSI breakpoints): 0%
MIC90 (E. cloacae CeftazS; L. Amer, N=57): 0.5 µg/mL (≈ 1.67 µM)
% R (resistance) (E. cloacae CeftazS; N America, CLSI breakpoints): 0%
MIC90 (E. cloacae CeftazS; N America, N=210): 0.5 µg/mL (≈ 1.67 µM)
% R (resistance) (E. coli ESBL+; Asia/Pac, Eucast breakpoints): 0.5%
MIC90 (E. coli ESBL+; Asia/Pac, N=219): 0.25 µg/mL (≈ 0.835 µM)
% R (resistance) (E. coli ESBL+; Europe, Eucast breakpoints): 0%
MIC90 (E. coli ESBL+; Europe, N=274): 0.25 µg/mL (≈ 0.835 µM)
% R (resistance) (E. coli ESBL+; L. Amer, CLSI breakpoints): 0.6%
MIC90 (E. coli ESBL+; L. Amer, N=168): 0.25 µg/mL (≈ 0.835 µM)
% R (resistance) (E. coli ESBL+; N America, CLSI breakpoints): 0%
MIC90 (E. coli ESBL+; N America, N=134): 0.25 µg/mL (≈ 0.835 µM)
% R (resistance) (E. coli ESBL−; Asia/Pac, Eucast breakpoints): 0%
MIC90 (E. coli ESBL−; Asia/Pac, N=282): ≤ 0.12 µg/mL
% R (resistance) (E. coli ESBL−; Europe, Eucast breakpoints): 0%
MIC90 (E. coli ESBL−; Europe, N=1533): ≤ 0.12 µg/mL
% R (resistance) (E. coli ESBL−; L. Amer, CLSI breakpoints): 0%
MIC90 (E. coli ESBL−; L. Amer, N=389): ≤ 0.12 µg/mL
% R (resistance) (E. coli ESBL−; N America, CLSI breakpoints): 0%
MIC90 (E. coli ESBL−; N America, N=1172): ≤ 0.12 µg/mL
% R (resistance) (A. baumanii; Asia/Pac, Eucast breakpoints): 72.4%
MIC90 (A. baumanii; Asia/Pac, N=275): > 8 µg/mL
% R (resistance) (A. baumanii; Europe, Eucast breakpoints): 66.2%
MIC90 (A. baumanii; Europe, N=145): > 8 µg/mL
% R (resistance) (A. baumanii; L. Amer, CLSI breakpoints): 75.6%
MIC90 (A. baumanii; L. Amer, N=275): > 8 µg/mL
% R (resistance) (A. baumanii; N America, CLSI breakpoints): 53.2%
MIC90 (A. baumanii; N America, N=154): > 8 µg/mL
% R (resistance) (Enterobacter spp; Asia/Pac, Eucast breakpoints): 0%
MIC90 (Enterobacter spp; Asia/Pac, N=52): 1 µg/mL (≈ 3.34 µM)
% R (resistance) (Enterobacter spp; Europe, Eucast breakpoints): 0%
MIC90 (Enterobacter spp; Europe, N=82): 1 µg/mL (≈ 3.34 µM)
% R (resistance) (Enterobacter spp; L. Amer, CLSI breakpoints): 0%
MIC90 (Enterobacter spp; L. Amer, N=42): 1 µg/mL (≈ 3.34 µM)
% R (resistance) (Enterobacter spp; N America, CLSI breakpoints): 1 (1) %
MIC90 (Enterobacter spp; N America, N=101): 1 (1)
% R (resistance) (K. pneumoniae ESBL−; Asia/Pac, Eucast breakpoints): 0%
MIC90 (K. pneumoniae ESBL−; Asia/Pac, N=189): 0.5 µg/mL (≈ 1.67 µM)
% R (resistance) (K. pneumoniae ESBL−; Europe, Eucast breakpoints): 0%
MIC90 (K. pneumoniae ESBL−; Europe, N=361): 0.25 µg/mL (≈ 0.835 µM)
% R (resistance) (K. pneumoniae ESBL−; L. Amer, CLSI breakpoints): 0%
MIC90 (K. pneumoniae ESBL−; L. Amer, N=160): 0.25 µg/mL (≈ 0.835 µM)
% R (resistance) (K. pneumoniae ESBL−; N America, CLSI breakpoints): 0%
MIC90 (K. pneumoniae ESBL−; N America, N=671): 0.25 µg/mL (≈ 0.835 µM)
% R (resistance) (E. cloacae CeftazR; Asia/Pac, Eucast breakpoints): 0%
MIC90 (E. cloacae CeftazR; Asia/Pac, N=63): 1 µg/mL (≈ 3.34 µM)
% R (resistance) (E. cloacae CeftazR; Europe, Eucast breakpoints): 1.4%
MIC90 (E. cloacae CeftazR; Europe, N=72): 1 µg/mL (≈ 3.34 µM)
% R (resistance) (E. cloacae CeftazR; L. Amer, CLSI breakpoints): 0%
MIC90 (E. cloacae CeftazR; L. Amer, N=42): 0.5 µg/mL (≈ 1.67 µM)
% R (resistance) (E. cloacae CeftazR; N America, CLSI breakpoints): 11.7%
MIC90 (E. cloacae CeftazR; N America, N=77): 8 µg/mL (≈ 26.7 µM)

CC(C)(O/N=C(\C(=O)N[C@@H]1C(=O)N2C(C(=O)[O-])=C(C[n+]3ccccc3)CS[C@H]12)c1csc(N)n1)C(=O)O [ceftazidime]
resistance rates for ESBL-producing clinical isolates (E. coli ESBL+; E. coli): 50%

Source: US10238670B2, “9-aminomethyl minocycline compounds and methods of use thereof in urinary tract infection (UTI) treatment” (Paratek Pharmaceuticals, Inc., priority 2016, dated 2019)
